How the values were obtained:
[1] = system: Peroxiredoxin-6 (PRDX6_HUMAN); assay: LC–MS proteome analysis, PRDX6; assay type: cell-based, Homo sapiens; conditions: IC50 concentration, % of control
Experimental: (§1) Enzymes involved in oxidoreductive potential were analyzed in the cell lysates obtained after treatment cells with selected conjugates for 24 h. Cells were washed with phosphate-buffered saline (PBS) and harvested, then centrifuged at 1000× g for 10 min. Then, lysis buffer (containing protease inhibitor, 1% RIPA Lysis and Extraction Buffer (ThermoFisher)) and cold PBS were added, and samples were sonicated three times in ice bath. Next, the cell lysates were centrifuged at 14,000× g at 4 °C for 15 min, and then supernatants were stored at […] before use. Protein concentration was measured by the Bradford method.
(§2) Normalized protein concentrations (5 µg) from cell lysate were precipitated by ice cold (–20 °C) acetonitrile (ACN, Merck, in ratio 1:4). Then, samples were centrifuged (–9 °C, 30 min., 18,000× g), the supernatant was discarded and ACN excess was evaporated using a vacuum centrifuge (5 min., room temp.). Protein pellet was dissolved in 40 mM ammonium bicarbonate. An amount of 500 mM dithiothreitol (DTT, with final concentration 20 mM) and 1 M iodoacetamide (IAA, with final concentration 40 mM) were used for reduction and alkylation processes. After 16 h of incubation in 37 °C with Trypsin Gold (Promega), digested protein samples were diluted with 0.1% formic acid (ThermoFisher) and centrifuged (+2 °C, 30 min, 18,000× g).
(§3) LC–MS analysis was carried out with the use of nanoUHPLC (nanoElute, Bruker) coupled by CaptiveSpray (Bruker) to ESI-Q-TOF mass spectrometer (Compact, Bruker). Two-column separation method was used, i.e., pre-column (300 µm × 5 mm, C18 PepMap 100, 5 µm, 100Å, Thermo Scientific) and Aurora separation column with CSI fitting (75 µm × 250 mm, C18 1.6 µm) in gradient 2% B to 35% B in 90 min with the 300 nL/min flow rate. Mobile phases (A) 0.1% formic acid in water and (B) 0.1% formic acid in ACN were used.
(§4) Sample ionizations were performed at a gas flow of 3.0 L/min, temperature of 150 °C and voltage of the capillary at 1600 V. The quadrupole energy was fixed to 5.0 eV and collision chamber energy 7.0 eV, with an ion transfer time of 90 µs. The ions were analyzed in the positive polarity mode in the range 150–2200 m/z, with the acquisition frequency of the 1 Hz spectrum, as well as with the autoMS/MS system.
(§5) The collected spectra were analyzed and calibrated using DataAnalysis software (Bruker) and then identified in ProteinScape (Bruker) by the MASCOT server. Protein identification was conducted using the online SwissProt and NCBIprot databases, and their references and biological significance were identified using Reactome.org, String.org and KEGG.

[2] = system: Glutathione reductase, mitochondrial (GSHR_HUMAN); assay: LC–MS proteome analysis, GSHR; assay type: cell-based, Homo sapiens; conditions: IC50 concentration, % of control
Experimental: as §1, §2, §3, §4, §5

[3] = system: Peroxiredoxin-2 (PRDX2_HUMAN); assay: LC–MS proteome analysis, PRDX2; assay type: cell-based, Homo sapiens; conditions: IC50 concentration, % of control
Experimental: as §1, §2, §3, §4, §5

PC3 cells = assay: LDH release assay, PC3; assay type: cell-based, human; conditions: 72 h
Experimental: (§6) The presence of lactate dehydrogenase (LDH) in culture medium indicates a disturbance of the integrity of the cellular membrane. The LDH activity was performed after 72 h incubation of cells (1 × 10^4 cells per well) in 96-well plates with selected compounds according to manufacturer’s protocol (Roche Diagnostics, Germany), as was described by Chrzanowska et al.. Compound mediated cytotoxicity was determined using equation: ((A test sample−A low control)/ (A high control−A low control)) × 100% (A-absorbance), where “low control” means cells in medium with 2% FBS without tested compounds, and “high control” means cells incubated in medium with 2% FBS and 1% Triton X-100 (100% LDH release). The cytotoxicity was expressed as percentage of LDH release as compared with the maximum release of LDH from Triton-X-100-treated cells.

SW480 cells = assay: LDH release assay, SW480; assay type: cell-based, human; conditions: 72 h
Experimental: as §6

Row | Compound | Protein Intensity, % (PRDX6) ([1]; PC3, 24 h) | Protein Intensity, % (PRDX6) ([1]; SW480, 24 h) | Protein Intensity, % (PRDX6) ([1]; SW620, 24 h) | Protein Intensity, % (GSHR) ([2]; PC3, 24 h) | Protein Intensity, % (GSHR) ([2]; SW480, 24 h) | Protein Intensity, % (GSHR) ([2]; SW620, 24 h) | Protein Intensity, % (PRDX2) ([3]; PC3, 24 h) | Protein Intensity, % (PRDX2) ([3]; SW480, 24 h) | Protein Intensity, % (PRDX2) ([3]; SW620, 24 h) | LDH release (PC3 cells; PC3, 10 μM) | LDH release (PC3 cells; PC3, 40 μM) | LDH release (PC3 cells; PC3, 60 μM) | LDH release (SW480 cells; SW480, 20 μM) | LDH release (SW480 cells; SW480, 40 μM) | LDH release (SW480 cells; SW480, 60 μM)
1 | O=[N+]([O-])c1cc([N+]2=C(Nc3ccccc3Br)[S][Cu-2]23[S]C(Nc2ccccc2Br)=[N+]3c2ccc(Cl)c([N+](=O)[O-])c2)ccc1Cl [Compound 1, Copper (II) complex with 1-(2-bromophenyl)-3-(4-chloro-3-nitrophenyl)thiourea] | 66.6% | 75.1% | 83.2% | 71.1% | 58.1% | 69.1% | 42.3% | 95.5% | 92.1% | – | – | – | – | – | –
2 | O=[N+]([O-])c1cc([N+]2=C(Nc3ccc(Br)cc3)[S][Cu-2]23[S]C(Nc2ccc(Br)cc2)=[N+]3c2ccc(Cl)c([N+](=O)[O-])c2)ccc1Cl [Compound 3, Copper (II) complex with 1-(4-bromophenyl)-3-(4-chloro-3-nitrophenyl)thiourea] | 71.1% | 81.3% | 66.4% | 58.9% | 63.1% | 79.2% | 47.3% | 93.7% | 71.6% | – | – | – | – | – | –
3 | O=[N+]([O-])c1cc([N+]2=C(Nc3ccccc3F)[S][Cu-2]23[S]C(Nc2ccccc2F)=[N+]3c2ccc(Cl)c([N+](=O)[O-])c2)ccc1Cl [Compound 7, Copper (II) complex with 1-(2-fluorophenyl)-3-(4-chloro-3-nitrophenyl)thiourea] | 35.0% | 68.3% | 67.5% | 61.2% | 91.7% | 67.3% | 32.2% | 69.4% | 58.6% | – | – | – | – | – | –
4 | O=[N+]([O-])c1cc([N+]2=C(Nc3ccc(I)cc3)[S][Cu-2]23[S]C(Nc2ccc(I)cc2)=[N+]3c2ccc(Cl)c([N+](=O)[O-])c2)ccc1Cl [Compound 8, Copper (II) complex with 1-(4-iodophenyl)-3-(4-chloro-3-nitrophenyl)thiourea] | 53.7% | 71.1% | 77.6% | 68.5% | 74.3% | 79.3% | 39.9% | 78.3% | 88.6% | 27.2% | 56.4% | 64% | 42% | 46.4% | 58%

Source: publication PMC8584173, “The Cytotoxic Effect of Copper (II) Complexes with Halogenated 1,3-Disubstituted Arylthioureas on Cancer and Bacterial Cells” (International Journal of Molecular Sciences, 2021)
